Experimental data published in US20260125360A1, “HERBICIDAL IMIDAZOLE COMPOUNDS” (SYNGENTA CROP PROTECTION AG, priority 2022, published 2026).

How the values were obtained:
Type in all cases: in vivo
Conditions in all cases: 250 g/ha, evaluated after 13 days
[1] = system: Amaranthus palmeri (AMAPA); experiment: Post-emergence herbicide glasshouse test
Summary of the method: (§1)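 Spray: acetone/water 50:50 + 0.5% Tween 20, 250 g/ha unless stated; 1 d (pre) or 8 d (post) after sowing. Glasshouse 24/16° C, 14 h light, 65% RH, watered twice daily. Read-out at 13 d: % damage binned 1–5 (5=81-100%, 1=0-20%).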

[2] = system: Ipomoea hederacea (IPOHE); experiment: Post-emergence herbicide glasshouse test
Summary of the method: as §1

[3] = system: Echinochloa crus-galli (ECHCG); experiment: Post-emergence herbicide glasshouse test
Summary of the method: as §1

[4] = system: Amaranthus retoflexus (AMARE); experiment: Post-emergence herbicide glasshouse test
Summary of the method: as §1

[5] = system: Amaranthus palmeri (AMAPA); experiment: Pre-emergence herbicide glasshouse test
Summary of the method: as §1

[6] = system: Ipomoea hederacea (IPOHE); experiment: Pre-emergence herbicide glasshouse test
Summary of the method: as §1

[7] = system: Echinochloa crus-galli (ECHCG); experiment: Pre-emergence herbicide glasshouse test
Summary of the method: as §1

[8] = system: Amaranthus retoflexus (AMARE); experiment: Pre-emergence herbicide glasshouse test
Summary of the method: as §1

| SMILES | percentage damage caused to the plant, AMAPA (five-point scale) [1] | percentage damage caused to the plant, IPOHE (five-point scale) [2] | percentage damage caused to the plant, ECHCG (five-point scale) [3] | percentage damage caused to the plant, AMARE (five-point scale) [4] | percentage damage caused to the plant, AMAPA (five-point scale) [5] | percentage damage caused to the plant, IPOHE (five-point scale) [6] | percentage damage caused to the plant, ECHCG (five-point scale) [7] | percentage damage caused to the plant, AMARE (five-point scale) [8] |
| --- | --- | --- | --- | --- | --- | --- | --- | --- |
| FC(F)(F)c1cn(Cc2nc(C3CC3)no2)c(-c2ccc(Cl)nc2)n1 [Compound 1.138] | 1 (1=0-20%) | 2 (2=21-40%) | 1 (1=0-20%) | 1 (1=0-20%) | 3 (3=41-60%) | 2 (2=21-40%) | 1 (1=0-20%) | 3 (3=41-60%) |
| CC(C)c1noc(Cn2cc(C(F)(F)F)nc2-c2ccc(Cl)nc2)n1 [Compound 1.139] | 1 (1=0-20%) | 1 (1=0-20%) | 1 (1=0-20%) | 1 (1=0-20%) | 1 (1=0-20%) | 1 (1=0-20%) | 1 (1=0-20%) | 1 (1=0-20%) |
| CCCn1nnnc1Cn1cc(C(F)(F)F)nc1-c1ccc(Cl)nc1 [Compound 1.140] | 1 (1=0-20%) | 1 (1=0-20%) | 1 (1=0-20%) | 1 (1=0-20%) | 1 (1=0-20%) | 1 (1=0-20%) | 1 (1=0-20%) | 1 (1=0-20%) |
| Cc1noc(C)c1Cn1cc(C(F)(F)F)nc1-c1ccc(Cl)nc1 [Compound 1.141] | 1 (1=0-20%) | 1 (1=0-20%) | 1 (1=0-20%) | 1 (1=0-20%) | 1 (1=0-20%) | 1 (1=0-20%) | 1 (1=0-20%) | 1 (1=0-20%) |
| CN(C)S(=O)(=O)c1cc(Cn2cc(C(F)(F)F)nc2-c2ccc(Cl)nc2)co1 [Compound 1.144] | 1 (1=0-20%) | 1 (1=0-20%) | 1 (1=0-20%) | 1 (1=0-20%) | 1 (1=0-20%) | 1 (1=0-20%) | 1 (1=0-20%) | 1 (1=0-20%) |
| Cc1cc(Cn2cc(C(F)(F)F)nc2-c2ccc(Cl)nc2)n(C)n1 [Compound 1.147] | 2 (2=21-40%) | 3 (3=41-60%) | 1 (1=0-20%) | 3 (3=41-60%) | 2 (2=21-40%) | 4 (4=61-80%) | 1 (1=0-20%) | 2 (2=21-40%) |
| FC(F)(F)c1cn(Cc2sc(Cl)nc2Cl)c(-c2ccc(Cl)nc2)n1 [Compound 1.148] | 1 (1=0-20%) | 1 (1=0-20%) | 1 (1=0-20%) | 1 (1=0-20%) | 1 (1=0-20%) | 1 (1=0-20%) | 1 (1=0-20%) | 1 (1=0-20%) |
| FC(F)(F)c1cn(Cc2cnc(Cl)s2)c(-c2ccc(Cl)nc2)n1 [Compound 1.150] | 1 (1=0-20%) | 1 (1=0-20%) | 1 (1=0-20%) | 1 (1=0-20%) | 2 (2=21-40%) | 1 (1=0-20%) | 1 (1=0-20%) | 2 (2=21-40%) |
| Cc1noc(Cn2cc(C(F)(F)F)nc2-c2cnc(F)c(Cl)c2)n1 [Compound 1.151] | 5 (5=81-100%) | 4 (4=61-80%) | 3 (3=41-60%) | 5 (5=81-100%) | 5 (5=81-100%) | 5 (5=81-100%) | 3 (3=41-60%) | 5 (5=81-100%) |
| Fc1ncc(-c2nc(C(F)(F)F)cn2Cc2ccc(Cl)s2)cc1Cl [Compound 1.152] | 5 (5=81-100%) | 2 (2=21-40%) | 1 (1=0-20%) | 5 (5=81-100%) | 5 (5=81-100%) | 1 (1=0-20%) | 3 (3=41-60%) | 5 (5=81-100%) |
| Cn1ccc(Cn2cc(C(F)(F)F)nc2-c2cnc(F)c(Cl)c2)n1 [Compound 1.153] | 5 (5=81-100%) | 4 (4=61-80%) | 5 (5=81-100%) | 5 (5=81-100%) | 5 (5=81-100%) | 5 (5=81-100%) | 5 (5=81-100%) | 5 (5=81-100%) |
| Cc1cc(Cn2cc(C(F)(F)F)nc2-c2cnc(F)c(Cl)c2)ns1 [Compound 1.154] | 5 (5=81-100%) | 4 (4=61-80%) | 5 (5=81-100%) | 5 (5=81-100%) | 5 (5=81-100%) | 5 (5=81-100%) | 5 (5=81-100%) | 5 (5=81-100%) |
| Cc1nc(Cn2cc(C(F)(F)F)nc2-c2ccc(S(C)(=O)=O)cc2)no1 [Compound 1.159] | 5 (5=81-100%) | 5 (5=81-100%) | 2 (2=21-40%) | 5 (5=81-100%) | 5 (5=81-100%) | 5 (5=81-100%) | 1 (1=0-20%) | 5 (5=81-100%) |
| Cc1nc(Cn2cc(C(F)(F)F)nc2-c2cnc(F)c(Cl)c2)no1 [Compound 1.160] | 5 (5=81-100%) | 4 (4=61-80%) | 5 (5=81-100%) | 5 (5=81-100%) | 5 (5=81-100%) | 5 (5=81-100%) | 5 (5=81-100%) | 5 (5=81-100%) |
| Cc1cc(Cn2cc(C(F)(F)F)nc2-c2ccc(S(C)(=O)=O)cc2)ns1 [Compound 1.161] | 5 (5=81-100%) | 5 (5=81-100%) | 5 (5=81-100%) | 5 (5=81-100%) | 5 (5=81-100%) | 5 (5=81-100%) | 5 (5=81-100%) | 5 (5=81-100%) |
| Cc1cc(Cn2cc(C(F)(F)F)nc2-c2ccc(F)c(F)c2)ns1 [Compound 1.162] | 5 (5=81-100%) | 4 (4=61-80%) | 5 (5=81-100%) | 5 (5=81-100%) | 5 (5=81-100%) | 3 (3=41-60%) | 5 (5=81-100%) | 5 (5=81-100%) |
